In US8623811B2, “Antimicrobial peptide, compositions, and methods of use” (Revance Therapeutics, Inc., priority 2007, dated 2014):

Key:
[1] = test system: Tinea Pedis (Athlete's feet); assay: Soak and topical use in a patient with Tinea Pedis; assay type: in vivo, human; settings: 0.05% peptide formulation for 5 years
Description: The cream formulation is composed of the excipients cetyl alcohol, isopropyl myristate, stearyl alcohol, butylated hydrosyxtoluene, polyoxyethylene stearyl ether, polyoxyethylene stearyl ether, edetate disodium, and purified water.

acne = assay: Topical use in a patient with acne; assay type: in vivo, human; settings: continued use of the formulation for two years
Description: A person with a two-year history of acne uses topical 5% peptide (SEQ ID NO:5) formulation twice a day for 4 weeks. The cream formulation is composed of the excipients cetyl alcohol, isopropyl myristate, stearyl alcohol, butylated hydroxytolune, polyoxyethylene stearyl ether, polyoxyethylene stearyl ether, edetate disodium, and purified water.

N=C(N)NCCC[C@H](NC(=O)[C@H](CCCNC(=N)N)NC(=O)[C@H](CCCNC(=N)N)NC(=O)[C@H](CCC(N)=O)NC(=O)[C@H](CCCNC(=N)N)NC(=O)[C@H](CCCNC(=N)N)NC(=O)[C@H](CCCCN)NC(=O)[C@H](CCCCN)NC(=O)[C@H](CCCNC(=N)N)NC(=O)CNC(=O)[C@H](CCCCN)NC(=O)[C@H](CCCCN)NC(=O)[C@H](CCCCN)NC(=O)[C@H](CCCCN)NC(=O)[C@H](CCCCN)NC(=O)[C@H](CCCCN)NC(=O)[C@H](CCCCN)NC(=O)[C@H](CCCCN)NC(=O)[C@H](CCCCN)NC(=O)[C@H](CCCCN)NC(=O)[C@H](CCCCN)NC(=O)[C@H](CCCCN)NC(=O)[C@H](CCCCN)NC(=O)[C@H](CCCCN)NC(=O)[C@H](CCCCN)NC(=O)CNC(=O)[C@H](CCCNC(=N)N)NC(=O)[C@H](CCCNC(=N)N)NC(=O)[C@H](CCCNC(=N)N)NC(=O)[C@H](CCC(N)=O)NC(=O)[C@H](CCCNC(=N)N)NC(=O)[C@H](CCCNC(=N)N)NC(=O)[C@H](CCCCN)NC(=O)[C@H](CCCCN)NC(=O)[C@@H](N)CCCNC(=N)N)C(=O)O [SEQ ID NO:5, Arg-Lys-Lys-Arg-Arg-Gln-Arg-Arg-Arg-Gly-(Lys)15-Gly-Arg-Lys-Lys-Arg-Arg-Gln-Arg-Arg-Arg]
adverse event on continued use [1]: no further breakout or adverse event
adverse events on continued use (acne): no new breakouts or adverse events are observed
